Experimental data: patent publication US7294643B2, “UK-1 analogues: methods of preparation and use” (Board of Regents, The University of Texas System, priority 2002, dated 2007)
pIC50: −log10 of the molar value. Where two headings read alike, the source gives them in different places.

How the values were obtained:
[1] = tested on: methicillin-resistant S. aureus ATCC 43300; assay: Antimicrobial bioassay, methicillin-resistant S. aureus; type: cell-based, Staphylococcus aureus; conditions: Staphylococcus aureus, ATCC43300; for pIC50: 50% growth of test organism, NA = no activity observed at concentrations up to 50 μg/mL, read-out: Antibacterial IC50 Meth-resist S. aureus; for IC50: Methacilline-resistant Staph. Aureus, growth inhibited by 50%, read-out: Staph. aureus IC50
Description: (§1) Antimicrobial Bioassay: Staphylococcus aureus ATCC 29213 and methicillin-resistant S. aureus ATCC 43300 (MRS) were obtained from the American Type Culture Collection (Rockville, Md.) and stored on agar slants at 4° C. until needed. Susceptibility testing was performed using a modified version of the NCCLS methods: “Methods for Dilution Antimicrobial Susceptibility Tests for Bacteria that Grow Aerobically,” M7-A4, Vol. 17, No. 2, NCCLS, (1997) and “Reference Method for Broth Dilution Antifungal Susceptibility Testing of Yeasts; Approved Standard,” M27-A, Vol. 17, No. 9, NCCLS, (1997), both of which are incorporated herein by reference. Microorganisms were subcultured prior to the assay by suspending cells from the slant in Eugon broth (BBL, Maryland) and incubating for 24 hours at 37° C. Inocula were prepared by diluting the subcultured organism in its incubation broth after comparison to the 0.5 McFarland Standard (a BaSO4 suspension) to afford final inocula ranges of S. aureus: 1.0-5.0×10^5 and MRS: 0.2-6.0×10^5 CFU/ml. Test compounds were dissolved in DMSO, serially-diluted using normal saline, and transferred in duplicate to 96 well flat-bottomed microtiter plates. The microbial inocula were added to the samples to achieve a final volume of 200 μl and final compound concentrations starting with 50 μg/ml. Drug [Ciprofloxacin (ICN Biomedicals, Ohio)] as well as growth and blank (media only) controls were added to each test plate. Plates were read at 630 nm using the EL-340 Biokinetics Reader (Bio-Tek Instruments, Vermont) prior to and after incubation at 37° C. for 24 hours. Percent growth was calculated and plotted versus concentration to afford the IC50, or sample concentration that affords 50% growth of the organism relative to controls.

[2] = alamarBlue cytotoxicity, range over three cell lines; type: cell-based; conditions: human; range of concentrations required to inhibit growth of MCF-7, HT-29, and PC-3 cells by 50%
Description: (§2) Cytotoxicity Assays. Cell culture cytotoxicity assays were performed using the. alamarBlue method, as described by Ahmed et al., J. Immun. Methods 1994, 170, 211-224, which is incorporated herein by reference. Briefly, aliquots of 100 μL of cell suspension (1.0-2.5×10^3 cells) was placed in 96-well microtiter plates in an atmosphere of 5% CO2 at 37° C. After 24 hours, 100 μL of culture medium and 2 μL of compound in vehicle (culture media with 40% pyridine) or vehicle alone were added, and the plates incubated an additional 72 hours. The final pyridine concentration in all cases was 0.4%; at this pyridine concentration there was no affect on the growth of cells compared to cells in culture media without added pyridine. […] After the culture media had been removed from each well, 200 μL of fresh media and 20 μL of 90% alamarBlue reagent were added, followed by an additional 6 h incubation. The fluorescent intensity was measured using a Spectrafluor Plus plate reader with excitation at 530 nm and emission at 590 nm. Results are reported as IC50 values, the average concentration required to produce a decrease of fluorescent intensity of 50% relative to vehicle-treated controls in two separate determinations.

[3] = tested on: Staphylococcus aureus ATCC 29213; assay: Antimicrobial bioassay, S. aureus; type: cell-based; conditions: Staphylococcus aureus, ATCC29213; for pIC50: 50% growth of test organism, NA = no activity observed at concentrations up to 50 μg/mL, read-out: Antibacterial IC50 S. aureus
Description: as §1

[4] = tested on: double-stranded DNA oligonucleotide; assay: DNA binding by ESI-MS; design: key: MetalDepend.: all ligand-DNA complex ions also contained a metal ion.; None: no ligand-DNA complex ions observed.; MetalIndepend.: ligand-DNA and ligand-DNA-metal ion complex ions observed; conditions: ligand-DNA complex ions, presence or absence of added NiCl2
HL60 cells = assay: alamarBlue cytotoxicity assay, HL60; type: cell-based, human; conditions: Homo sapiens
Description: as §2

HT-29 cells = assay: alamarBlue cytotoxicity assay, HT-29; type: cell-based; conditions: Homo sapiens; HT-29, alamarBlue, 72 h
Description: as §2

[5] = Metal ion binding by continuous variation, Fe3+; conditions: Fe^3+, methanol, 1:1 complex
Description: (§3) Previous work indicated the metal ion binding mechanism of UK-1, so the method of continuous variation was used to determine the ability of selected UK-1analogues to bind a variety of metal ions. Methanolic solutions of UK-1 or UK-1 analogues and metal ion salts [Ca(NO3)2, Mg(NO3)2, Zn(NO3)2, or Fe(NO3)3] at various molar ratios, and 20 μM combined total concentration, were prepared and the absorbance at 418 nm was determined. […] Compound 2.1 does bind with Ca^2+ and Zn^2+ better than UK-1.
(§4) Continuous variation plots. A 100 μM solution of UK-1 or analogue and 100 AM solutions of Ca(NO3)2, Mg(NO3)2, Zn(NO3)2, or Fe(NO3)3 were prepared in methanol. From these stock solutions, 15 samples (1 mL) of varying mole fraction of the metal ion were prepared at a constant, combined concentration of 20 μM for the ligand and the metal ion. The change in absorbance was monitored from 500 to 200 nm for each sample using as a reference a 1 mL solution containing the same concentration of ligand as the sample being measured but without the metal ion. The maximum absorbance change was typically around 418 nm but varied somewhat for each metal ion. The absorbance at 418 nm was plotted as a function of the mole fraction of the metal ion and the maximum absorbance change was determined. The absorbance of a sample containing the metal ion concentration corresponding to this maximum change and a 15 fold excess of metal ion at this ligand concentration, subtracted from a reference containing the same concentration of ligand but no metal ion was used to normalize the curve and obtain the conditional formation constant as described in the paper to Likussar, W.; Boltz, D. F. Anal. Chem. 1971, 43, 1265-1272, which is incorporated herein by reference.

[6] = alamarBlue cytotoxicity, range over four cell lines; type: cell-based; conditions: human
Description: as §2, with “hours.” for “hours. The final pyridine concentration in all cases was 0.4%; at this pyridine concentration there was no affect on the growth of cells compared to cells in culture media without added pyridine.”, “nm.” for “nm. Results are reported as IC50 values, the average concentration required to produce a decrease of fluorescent intensity of 50% relative to vehicle-treated controls in two separate determinations.”

PC-3 cells = assay: alamarBlue cytotoxicity assay, PC-3; type: cell-based, human; conditions: Homo sapiens, PC-3, 72 h, PC-3, alamarBlue
Description: as §2

[7] = Metal ion binding by continuous variation, Ca2+; conditions: Ca^2+, methanol, 1:1 complex
Description: as §3, §4

[8] = Metal ion binding by continuous variation, Mg2+; conditions: for Association constant for metal ion binding: Mg^2+, methanol, 1:1 complex
Description: as §3, §4

[9] = Metal ion binding by continuous variation, Zn2+; conditions: for Association constant for metal ion binding: Zn^2+, methanol, 1:1 complex
Description: as §3, §4

MCF-7 cells = assay: alamarBlue cytotoxicity assay, MCF-7; type: cell-based; conditions: Homo sapiens, MCF7; MCF-7, alamarBlue, 72 h
Description: as §2

Candida albicans = assay: Antimicrobial bioassay, Candida albicans; type: cell-based
Cryptococcus neoformans = assay: Antimicrobial bioassay, Cryptococcus neoformans; type: cell-based
Pseudomonas aeruginosa = assay: Antimicrobial bioassay, P. aeruginosa; type: cell-based; conditions: P. aeruginosa
[10] = tested on: gram-positive or gram negative bacteria; conditions: cited from earlier work
yeast, or fungi = conditions: cited from earlier work

## O=C(O)c1cn(C2CC2)c2cc(N3CCNCC3)c(F)cc2c1=O [Ciprofloxacin]
[1]
  pIC50: 6.35
  IC50: 0.45 µg/mL
[2]
  IC50 at 72 h: > 100 µM
[3]
  pIC50: 6.35
[4]
  DNA-Binding ESI-MS: MetalIndepend.^f

## COC(=O)c1cccc2[nH]c(-c3cccc4oc(-c5ccccc5O)nc34)nc12 [Compound 2.1, Methyl 2-[2-(2-hydroxyphenyl)-1,3-benzoxazol-4-yl]-1H-benz imidazole-4-carboxylate]
HL60 cells; HL-60, 72 h, HL60, alamarBlue, 72 h
  pIC50: 4.15
HT-29 cells
  pIC50: < 4.00
[5]
  Association constant for metal ion binding: 10000 M⁻¹
[6]
  IC50 at 72 h: ≥ 70 µM
PC-3 cells
  pIC50: < 4.00
[7]
  Association constant for metal ion binding: 100000 M⁻¹
[8]
  Association constant for metal ion binding: 40000 M⁻¹
[9]
  Association constant for metal ion binding: 3.2e+06 M⁻¹
MCF-7 cells
  pIC50: < 4.00

## COC(=O)c1cccc2oc(-c3ccccc3OCc3ccccc3)nc12 [Compound 2.5, Methyl 2-[2-(benzyloxy)phenyl]-1,3-benzoxazole-4-carboxylate]
[6]
  IC50 at 72 h: > 100 µM

## O=C(O)c1cccc2oc(-c3ccccc3OCc3ccccc3)nc12 [Compound 2.6, 2-[2-(benzyloxy)phenyl]-1,3-benzoxazole-4-carboxylic acid]
[1]
  pIC50: 4.54
  IC50: 29 µg/mL
[6]
  IC50 at 72 h: > 100 µM
[2]
  IC50 at 72 h: > 100 µM
[3]
  pIC50: 4.37
[4]
  DNA-Binding ESI-MS: MetalIndepend.^f

## O=C(O)c1cccc2[nH]c(-c3ccccc3OCc3ccccc3)nc12 [Compound 2.9, 2-[2-(benzyloxy)phenyl]-1H-benzimidazole-4-carboxylic acid]
[1]
  pIC50: 3.99
[6]
  IC50 at 72 h: > 100 µM
[3]
  pIC50: 3.99

## COC(=O)c1cccc2oc(-c3ccccc3O)nc12 [Compound 2.13, Methyl 2-(2-hydroxyphenyl)-benzoxazole-4-carboxylate]
Candida albicans
  IC50: > 50 µg/mL
Cryptococcus neoformans
  IC50: > 50 µg/mL
HL60 cells; HL-60, HL60
  pIC50: 5.24
Pseudomonas aeruginosa
  IC50: > 50 µg/mL
HT-29 cells
  pIC50: 5.04
[1]
  IC50: > 50 µg/mL
[5]
  Association constant for metal ion binding: 7900 M⁻¹
[6]
  IC50 at 72 h: 0.88 to 9.1 µM
[3]; S. aureus, read-out: IC50
  IC50: > 50 µg/mL
PC-3 cells
  pIC50: 6.06
[7]
  Association constant for metal ion binding: 6300 M⁻¹
[8]
  Association constant for metal ion binding: 320000 M⁻¹
[4]
  DNA-Binding ESI-MS: MetalDepend.^d
[9]
  Association constant for metal ion binding: 1.3e+06 M⁻¹
MCF-7 cells
  pIC50: 5.82

## COC(=O)c1cccc2nc(-c3ccccc3O)oc12 [Compound 2.16, Methyl 2-(2-Hydroxy-phenyl)-benzooxazole-7-carboxylate]
[6]
  IC50 at 72 h: > 100 µM

## Oc1ccccc1-c1nc2ccccc2o1 [Compound 2.17, 2-(2′-hydroxyphenyl)benzoxazole]
[6]
  IC50 at 72 h: > 100 µM
[8]; result in words
  Mg^2+ ion complexation: does not appear to complex Mg^2+ ions
[9]; result in words
  Zn^2+ ion complexation: does appear to form complexes with Zn^2+

## O=C(O)c1cccc2oc(-c3cccc4oc(-c5ccccc5O)nc34)nc12 [DMUK-1]
[10]
  activity against Gram-positive and Gram-negative bacteria: have shown activity

## COC(=O)c1cccc2oc(-c3cccc4oc(-c5ccccc5OC)nc34)nc12 [MUK-1]
[10]
  activity against Gram-positive and Gram-negative bacteria: have shown activity
yeast, or fungi
  activity against yeast and filamentous fungi: active

## Oc1ccccc1-c1nc2ccccc2o1 [drawing 10]
[1]
  IC50: > 50 µg/mL
[2]
  IC50 at 72 h: > 100 µM
[4]
  DNA-Binding ESI-MS: None^e
